Data on 17 compounds can be found in patent publication US11584737B2, “Heterocyclic compound” (TAKEDA PHARMACEUTICAL COMPANY LIMITED, priority 2018, dated 2023).

Each structure is given as a SMILES string.

The test system of one assay is A2780 cells. Put plainly: In vitro proliferation suppression test (CellTiter-Glo). Conditions: Homo sapiens, 72 h, A2780 cell proliferation inhibitory rate at 1 μM test compound, three days. The class given is cell-based, human. Here is the method:
Experimental Example 4: In Vitro Proliferation Suppression Test
The proliferation suppressive activity of compound in A2780 cells was evaluated by the following method.
A2780 cells were seeded in a 384-well white plate at a cell density of 1,000 cells/40 μL/well or a 96-well white plate at a cell density of 1,000 cells/90 μL/well using an assay medium (RPMI1640 medium containing 10% fetal bovine serum (FUJIFILM Wako Pure Chemical Corporation)) and incubated at 37° C. in 5% CO2.
The next day, a test compound dissolved in dimethyl sulfoxide (DMSO) was diluted with an assay medium, the obtained compound solution was added by 40 μL/well or 10 μL/well to each well of the plate containing A2780 cells and the mixture was incubated (test compound addition group). In addition, a similar reaction was performed without adding the test compound (test compound non-addition group).
Three days later, 80 μL or 100 μL of CellTiter-Glo reagent (Promega) was added, and the mixture was stirred for 10 min. Thereafter, the luminescence of each well was measured by ARVO-MX multilabel counter (Perkin Elmer Inc.).
The proliferation inhibitory rate (%) of each test compound against A2780 cells was calculated by the following calculation formula. Proliferation inhibitory rate (%)=(1−luminescence of test compound addition group÷luminescence of test compound non-addition group)×100
The A2780 cell proliferation inhibitory rate (%) of 1 μM test compound is shown below.
On the technique in general: In ATP-based viability assays light output follows the ATP content of the culture.

A further assay deals with CDK12/CycK complex (Homo sapiens, UniProt Q9NYV4). Put plainly: Measurement of CDK12 inhibitory activity by binding assay (BODIPY-FL labeled AT-7519 high concentration conditions, 1320 nM). Conditions: inhibitory rate against CDK12 at 1 μM test compound, 1320 nM BODIPY-FL-labeled AT-7519, 8 nM CDK12/CycK. Here is the method:
(4) Measurement of CDK12 Inhibitory Activity by Binding Assay (BODIPY-FL Labeled AT-7519 High Concentration Conditions)
His-tagged CDK12/CycK complex was blended with a binding assay buffer supplemented with BODIPY-FL labeled AT-7519, terbium-labeled streptavidin and biotin-labeled anti-histidine antibody. This solution was added to an assay plate containing a test compound dispensed therein, and the mixture was left standing for 120 min at room temperature. The final concentration of CDK12/CycK complex, BODIPY-FL-labeled AT-7519, terbium-labeled streptavidin and biotin-labeled anti-histidine antibody was set to 8 nM, 1320 nM, 0.2 nM, and 0.4 nM, respectively. The fluorescence intensity derived from terbium and BODIPY-FL was measured using Envision. The signal value of each well was determined using the TR-FRET ratio calculated by the following formula. TR-FRET ratio=(fluorescence value of BODIPY-FL)÷(fluorescence value of terbium)
The inhibitory rate (%) of the test compound against CDK12 was calculated by the following formula. Inhibitory rate (%)=(1−(TR-FRET ratio of test compound−blank)÷(control−blank))×100
The TR-FRET ratio of the CDK12 enzyme reaction mixture under compound non-addition conditions is indicated as control, and the TR-FRET ratio under 30 μM AT-7519 addition conditions is indicated as blank.
The inhibitory rate of the test compound against CDK12 at 1 μM is shown below.

CDK12/CycK complex, sequence (Q9NYV4 whole entry, species assumed): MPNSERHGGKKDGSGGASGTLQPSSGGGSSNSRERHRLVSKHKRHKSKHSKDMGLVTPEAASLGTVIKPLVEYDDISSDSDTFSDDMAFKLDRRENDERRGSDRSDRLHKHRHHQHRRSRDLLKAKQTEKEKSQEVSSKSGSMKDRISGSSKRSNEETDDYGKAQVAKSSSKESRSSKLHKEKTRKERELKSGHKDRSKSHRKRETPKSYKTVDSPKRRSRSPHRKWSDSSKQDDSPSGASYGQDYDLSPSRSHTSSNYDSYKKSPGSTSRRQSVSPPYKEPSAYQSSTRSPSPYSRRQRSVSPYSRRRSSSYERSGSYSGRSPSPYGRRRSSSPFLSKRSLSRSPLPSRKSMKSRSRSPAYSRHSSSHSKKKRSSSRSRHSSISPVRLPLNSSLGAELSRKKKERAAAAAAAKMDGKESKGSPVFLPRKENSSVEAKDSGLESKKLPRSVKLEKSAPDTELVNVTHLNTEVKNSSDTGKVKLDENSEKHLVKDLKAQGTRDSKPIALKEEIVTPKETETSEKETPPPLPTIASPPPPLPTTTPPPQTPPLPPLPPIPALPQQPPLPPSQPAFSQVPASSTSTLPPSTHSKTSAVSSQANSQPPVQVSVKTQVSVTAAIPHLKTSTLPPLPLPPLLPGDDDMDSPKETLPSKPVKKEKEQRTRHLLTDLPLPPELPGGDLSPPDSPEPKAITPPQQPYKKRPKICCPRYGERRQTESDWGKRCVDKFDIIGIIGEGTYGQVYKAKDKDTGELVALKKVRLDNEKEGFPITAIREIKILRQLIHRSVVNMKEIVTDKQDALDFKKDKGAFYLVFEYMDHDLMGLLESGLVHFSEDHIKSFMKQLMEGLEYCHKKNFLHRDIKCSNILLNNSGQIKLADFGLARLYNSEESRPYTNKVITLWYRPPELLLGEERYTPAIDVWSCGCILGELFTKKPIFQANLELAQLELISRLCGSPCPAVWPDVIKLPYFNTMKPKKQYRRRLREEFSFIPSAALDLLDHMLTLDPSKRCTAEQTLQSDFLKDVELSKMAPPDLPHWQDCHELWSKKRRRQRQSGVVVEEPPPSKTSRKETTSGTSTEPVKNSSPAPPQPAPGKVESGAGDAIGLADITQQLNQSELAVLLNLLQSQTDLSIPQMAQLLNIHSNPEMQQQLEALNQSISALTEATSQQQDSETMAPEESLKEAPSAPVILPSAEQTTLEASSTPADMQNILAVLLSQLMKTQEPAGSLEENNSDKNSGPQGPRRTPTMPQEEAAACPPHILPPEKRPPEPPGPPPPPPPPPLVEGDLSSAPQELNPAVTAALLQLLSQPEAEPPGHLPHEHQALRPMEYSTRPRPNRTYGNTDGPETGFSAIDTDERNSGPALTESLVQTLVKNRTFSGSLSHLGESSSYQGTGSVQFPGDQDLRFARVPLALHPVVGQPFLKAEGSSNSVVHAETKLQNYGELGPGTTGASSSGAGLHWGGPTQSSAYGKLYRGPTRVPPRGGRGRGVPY
CDK12/CycK complex, sequence (O75909 whole entry partner, species assumed): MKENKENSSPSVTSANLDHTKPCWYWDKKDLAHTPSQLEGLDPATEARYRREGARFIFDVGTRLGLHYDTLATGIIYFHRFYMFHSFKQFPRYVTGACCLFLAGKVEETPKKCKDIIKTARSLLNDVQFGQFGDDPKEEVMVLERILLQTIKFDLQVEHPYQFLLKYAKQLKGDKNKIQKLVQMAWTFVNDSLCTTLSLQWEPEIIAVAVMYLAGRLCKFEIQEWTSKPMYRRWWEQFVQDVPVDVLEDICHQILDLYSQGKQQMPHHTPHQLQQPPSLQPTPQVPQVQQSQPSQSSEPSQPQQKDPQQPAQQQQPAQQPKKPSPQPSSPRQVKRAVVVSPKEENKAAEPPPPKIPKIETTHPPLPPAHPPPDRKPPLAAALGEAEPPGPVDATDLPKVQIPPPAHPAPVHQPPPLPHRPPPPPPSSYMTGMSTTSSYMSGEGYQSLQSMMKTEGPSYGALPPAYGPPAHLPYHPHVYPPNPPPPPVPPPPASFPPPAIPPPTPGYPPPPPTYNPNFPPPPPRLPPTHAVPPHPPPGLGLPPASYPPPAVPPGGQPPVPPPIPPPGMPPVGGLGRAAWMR

By inhibition is commonly meant the relative decrease from the control value, in per cent. Low readings indicate a response near the control, high ones a response far below the control. For `COc1ncc(-c2ccc(N(C(=O)NCC(F)F)[C@H]3CC[C@H](Nc4ncc(C(F)(F)F)c(-c5n[nH]cc5Cl)n4)CC3)nc2)cn1` [Example 693, 1-(trans-4-((4-(4-chloro-1H-pyrazol-3-yl)-5-(trifluoromethyl)pyrimidin-2-yl)amino)cyclohexyl)-3-(2,2-difluoroethyl)-1-(5-(2-methoxypyrimidin-5-yl)pyridin-2-yl)urea], the inhibition at 1 µM in the assay with A2780 cells came out at 98%; at CDK12/CycK complex, 100%.
On the same counts, the results for `COc1ncc(-c2ccc(N(C(=O)NCC(F)(F)F)[C@H]3CC[C@H](Nc4ncc(C(F)(F)F)c(-c5n[nH]cc5Cl)n4)CC3)nc2)cn1` [Example 729, 1-(trans-4-((4-(4-chloro-1H-pyrazol-3-yl)-5-(trifluoromethyl)pyrimidin-2-yl)amino)cyclohexyl)-1-(5-(2-methoxypyrimidin-5-yl)pyridin-2-yl)-3-(2,2,2-trifluoroethyl)urea] are 98% and 92%.
For the compound `COc1ncc(-c2cnc(N(C(=O)NCC(C)(F)F)[C@H]3CC[C@H](Nc4ncc(C(F)(F)F)c(-c5n[nH]cc5Cl)n4)CC3)cn2)cn1` [Example 740, 1-(trans-4-((4-(4-chloro-1H-pyrazol-3-yl)-5-(trifluoromethyl)pyrimidin-2-yl)amino)cyclohexyl)-3-(2,2-difluoropropyl)-1-(5-(2-methoxypyrimidin-5-yl)pyrazin-2-yl)urea], the figures for the inhibition at 1 µM with A2780 cells and on CDK12/CycK complex were 96% and 86%, respectively.
As for `COc1ncc(-c2cnc(N(C(=O)NCC3(F)CC3)[C@H]3CC[C@H](Nc4ncc(C(F)(F)F)c(-c5n[nH]cc5Cl)n4)CC3)cn2)cn1` [Example 742, 1-(trans-4-((4-(4-chloro-1H-pyrazol-3-yl)-5-(trifluoromethyl)pyrimidin-2-yl)amino)cyclohexyl)-3-((1-fluorocyclopropyl)methyl)-1-(5-(2-methoxypyrimidin-5-yl)pyrazin-2-yl)urea], the inhibition at 1 µM came to 96% in the assay on A2780 cells and 87% on CDK12/CycK complex.
The corresponding values for `COc1ncc(-c2cnc(N(C(=O)NCC(F)(F)F)[C@H]3CC[C@H](Nc4ncc(C(F)(F)F)c(-c5n[nH]cc5Cl)n4)CC3)cn2)cn1` [Example 743, 1-(trans-4-((4-(4-chloro-1H-pyrazol-3-yl)-5-(trifluoromethyl)pyrimidin-2-yl)amino)cyclohexyl)-1-(5-(2-methoxypyrimidin-5-yl)pyrazin-2-yl)-3-(2,2,2-trifluoroethyl)urea] are 95% and 81%.
At CDK12/CycK complex, `COc1ncc(-c2cnc(N(C(=O)N3CC(C)(O)C3)[C@H]3CC[C@H](Nc4ncc(C(F)(F)F)c(-c5n[nH]cc5Cl)n4)CC3)cn2)cn1` [Example 746, N-(trans-4-((4-(4-chloro-1H-pyrazol-3-yl)-5-(trifluoro-methyl)pyrimidin-2-yl)-amino)cyclohexyl)-3-hydroxy-N-(5-(2-methoxypyrimidin-5-yl)pyrazin-2-yl)-3-methylazetidine-1-carboxamide] had an inhibition at 1 µM of 91%.
The compound `COCCNC(=O)N(c1cnc(-c2cnc(OC)nc2)cn1)[C@H]1CC[C@H](Nc2ncc(C(F)(F)F)c(-c3nn(C(F)F)cc3Cl)n2)CC1` [Example 752, 1-(trans-4-((4-(4-chloro-1-(difluoromethyl)-1H-pyrazol-3-yl)-5-(trifluoromethyl)-pyrimidin-2-yl)amino)cyclo-hexyl)-3-(2-methoxyethyl)-1-(5-(2-methoxypyrimidin-5-yl)pyrazin-2-yl)urea] registered an inhibition at 1 µM at CDK12/CycK complex of 90%.
Compound `COCCNC(=O)N(c1cnc(-c2cnn(C)c2)cn1)[C@H]1CC[C@H](Nc2ncc(C(F)(F)F)c(-c3nn(C(F)F)cc3Cl)n2)CC1` [Example 756, 1-(trans-4-((4-(4-chloro-1-(difluoromethyl)-1H-pyrazol-3-yl)-5-(trifluoromethyl)-pyrimidin-2-yl)amino)cyclo-hexyl)-3-(2-methoxyethyl)-1-(5-(1-methyl-1H-pyrazol-4-yl)pyrazin-2-yl)urea] gave an inhibition at 1 µM on CDK12/CycK complex of 90%.
Still for that read-out and setting: then `Cn1ccc(-c2cnc(N(C(=O)NCC(F)(F)F)[C@H]3CC[C@H](Nc4ncc(C(F)(F)F)c(-c5ccn(C(F)F)n5)n4)CC3)cn2)cc1=O` [Example 768, 1-(trans-4-((4-(1-(difluoromethyl)-1H-pyrazol-3-yl)-5-(trifluoromethyl)-pyrimidin-2-yl)amino)-cyclohexyl)-1-(5-(1-methyl-2-oxo-1,2-dihydropyridin-4-yl)-pyrazin-2-yl)-3-(2,2,2-trifluoroethyl)urea], with 92%.
Turning to `COc1ncc(-c2cnc(N(C(=O)NCC(F)F)[C@H]3CC[C@H](Nc4ncc(C(F)(F)F)c(OC5(C)COC5)n4)CC3)cn2)cn1` [Example 777, 3-(2,2-difluoroethyl)-1-(5-(2-methoxypyrimidin-5-yl)pyrazin-2-yl)-1-(trans-4-((4-((3-methyloxetan-3-yl)oxy)-5-(trifluoromethyl)pyrimidin-2-yl)amino)cyclohexyl)urea], at CDK12/CycK complex, the inhibition at 1 µM is 92%.
Regarding `COCC(=O)N(c1cnc(-c2cnc(OC)nc2)cn1)[C@H]1CC[C@H](Nc2ncc(C(F)(F)F)c(-c3n[nH]cc3Cl)n2)CC1` [Example 796, N-(trans-4-((4-(4-chloro-1H-pyrazol-3-yl)-5-(trifluoromethyl)pyrimidin-2-yl)amino)cyclohexyl)-2-methoxy-N-(5-(2-methoxypyrimidin-5-yl)pyrazin-2-yl)acetamide], the inhibition at 1 µM on CDK12/CycK complex was 95%.
Still for that read-out and setting: to `COCC(=O)N(c1cnc(-c2cnc(OC)nc2)cn1)[C@H]1CC[C@H](Nc2ncc(C(F)(F)F)c(-c3ccn(C(F)F)n3)n2)CC1` [Example 797, N-(trans-4-((4-(1-(difluoro-methyl)-1H-pyrazol-3-yl)-5-(trifluoromethyl)pyrimidin-2-yl)amino)cyclohexyl)-2-methoxy-N-(5-(2-methoxypyrimidin-5-yl)pyrazin-2-yl)acetamide] belongs 92%.
Turning to `COCCOC(=O)N(c1cnc(-c2cnc(OC)nc2)cn1)[C@H]1CC[C@H](Nc2ncc(C(F)(F)F)c(-c3cncc(S(C)(=O)=O)c3)n2)CC1` [Example 800, 2-methoxyethyl (trans-4-((4-(5-(methanesulfonyl)pyridin-3-yl)-5-(trifluoromethyl)pyrimidin-2-yl)amino)cyclohexyl) (5-(2-methoxypyrimidin-5-yl)pyrazin-2-yl)carbamate], at CDK12/CycK complex, at 1 µM the inhibition was 91%.
Take `COc1ncc(-c2cnc(N(C(=O)OCCN3CCOCC3)[C@H]3CC[C@H](Nc4ncc(C(F)(F)F)c(-c5cncc(S(C)(=O)=O)c5)n4)CC3)cn2)cn1` [Example 808, 2-(morpholin-4-yl)ethyl (trans-4-((4-(5-(methanesulfonyl)-pyridin-3-yl)-5-(trifluoro-methyl)pyrimidin-2-yl)amino)cyclohexyl) (5-(2-methoxypyrimidin-5-yl)pyrazin-2-yl)carbamate]: at 1 µM the inhibition at CDK12/CycK complex was 99%.
In the case of `COCC(=O)N(c1cnc(-c2cnn(C)c2)cn1)[C@H]1CC[C@H](Nc2ncc(C(F)(F)F)c(-c3ccn(C(F)F)n3)n2)CC1` [Example 811, N-(trans-4-((4-(1-(difluoromethyl)-1H-pyrazol-3-yl)-5-(trifluoromethyl)pyrimidin-2-yl)amino)cyclohexyl)-2-methoxy-N-(5-(1-methyl-1H-pyrazol-4-yl)pyrazin-2-yl)acetamide], at 1 µM the inhibition at CDK12/CycK complex was 94%.
The compound `COCC(=O)N(c1cnc(-c2cnn(C)c2)cn1)[C@H]1CC[C@H](Nc2ncc(C(F)(F)F)c(-c3cncc(S(C)(=O)=O)c3)n2)CC1` [Example 812, N-(trans-4-((4-(5-(methanesulfonyl)pyridin-3-yl)-5-(trifluoromethyl)pyrimidin-2-yl)amino)cyclohexyl)-2-methoxy-N-(5-(1-methyl-1H-pyrazol-4-yl)pyrazin-2-yl)acetamide] registered an inhibition at 1 µM at CDK12/CycK complex of 95%.
For `CCCC(=O)N(c1cnc(-c2cnn(C)c2)cn1)[C@H]1CC[C@H](Nc2ncc(C(F)(F)F)c(-c3cncc(S(C)(=O)=O)c3)n2)CC1` [Example 814, N-(trans-4-((4-(5-(methanesulfonyl)pyridin-3-yl)-5-(trifluoromethyl)pyrimidin-2-yl)amino)cyclohexyl)-N-(5-(1-methyl-1H-pyrazol-4-yl)pyrazin-2-yl)butanamide], on CDK12/CycK complex, at 1 µM the inhibition was 99%.
